Data: ChEMBL document CHEMBL3862012, “Methylene versus carbonyl bridge in the structure of new tubulin polymerization inhibitors with tricyclic A-rings” (Bioorg Med Chem, 2016)

Key:
Format in all cases: functional
[1] = Cytotoxicity against human CCRF-CEM cells assessed as growth inhibition at 10 uM after 48 hrs by SRB assay relative to control; conditions: read-out: GI
[2] = Cytotoxicity against human HL-60(TB) cells assessed as growth inhibition at 10 uM after 48 hrs by SRB assay relative to control; conditions: HL-60, 48 h, read-out: GI
[3] = Cytotoxicity against human RPMI8226 cells assessed as growth inhibition at 10 uM after 48 hrs by SRB assay relative to control; conditions: RPMI-8226, 48 h, read-out: GI
[4] = Cytotoxicity against human SR cells assessed as growth inhibition at 10 uM after 48 hrs by SRB assay relative to control; conditions: read-out: GI
[5] = Cytotoxicity against human HOP92 cells assessed as growth inhibition at 10 uM after 48 hrs by SRB assay relative to control; conditions: HOP-92, 48 h, read-out: GI
[6] = Cytotoxicity against human NCI-H226 cells assessed as growth inhibition at 10 uM after 48 hrs by SRB assay relative to control; conditions: NCI-H226, 48 h, read-out: GI
[7] = Cytotoxicity against human NCI-H23 cells assessed as growth inhibition at 10 uM after 48 hrs by SRB assay relative to control; conditions: NCI-H23, 48 h, read-out: GI
[8] = Cytotoxicity against human NCI-H322M cells assessed as growth inhibition at 10 uM after 48 hrs by SRB assay relative to control; conditions: read-out: GI
[9] = Cytotoxicity against human NCI-H522 cells assessed as growth inhibition at 10 uM after 48 hrs by SRB assay relative to control; conditions: NCI-H522, 48 h, read-out: GI
[10] = Cytotoxicity against human COLO205 cells assessed as growth inhibition at 10 uM after 48 hrs by SRB assay relative to control; conditions: COLO 205, 48 h, read-out: GI
[11] = Cytotoxicity against human HCT116 cells assessed as growth inhibition at 10 uM after 48 hrs by SRB assay relative to control; conditions: HCT-116, 48 h, read-out: GI
[12] = Cytotoxicity against human HCT15 cells assessed as growth inhibition at 10 uM after 48 hrs by SRB assay relative to control; conditions: HCT-15, 48 h, read-out: GI
[13] = Cytotoxicity against human HT-29 cells assessed as growth inhibition at 10 uM after 48 hrs by SRB assay relative to control; conditions: HT-29, 48 h, read-out: GI
[14] = Cytotoxicity against human KM12 cells assessed as growth inhibition at 10 uM after 48 hrs by SRB assay relative to control; conditions: KM12, 48 h, read-out: GI
[15] = Cytotoxicity against human SW620 cells assessed as growth inhibition at 10 uM after 48 hrs by SRB assay relative to control; conditions: SW-620, 48 h, read-out: GI
[16] = Cytotoxicity against human SF268 cells assessed as growth inhibition at 10 uM after 48 hrs by SRB assay relative to control; conditions: SF-268, 48 h, read-out: GI
[17] = Cytotoxicity against human SF295 cells assessed as growth inhibition at 10 uM after 48 hrs by SRB assay relative to control; conditions: SF-295, 48 h, read-out: GI
[18] = Cytotoxicity against human U251 cells assessed as growth inhibition at 10 uM after 48 hrs by SRB assay relative to control; conditions: U-251, 48 h, read-out: GI
[19] = Cytotoxicity against human LOXIMVI cells assessed as growth inhibition at 10 uM after 48 hrs by SRB assay relative to control; conditions: LOX IMVI, read-out: GI
[20] = Cytotoxicity against human MALME-3M cells assessed as growth inhibition at 10 uM after 48 hrs by SRB assay relative to control; conditions: read-out: GI
[21] = Cytotoxicity against human M14 cells assessed as growth inhibition at 10 uM after 48 hrs by SRB assay relative to control; conditions: M14, 48 h, read-out: GI
[22] = Cytotoxicity against human IGROV1 cells assessed as growth inhibition at 10 uM after 48 hrs by SRB assay relative to control; conditions: IGROV-1, 48 h, read-out: GI
[23] = Cytotoxicity against human OVCAR5 cells assessed as growth inhibition at 10 uM after 48 hrs by SRB assay relative to control; conditions: OVCAR-5, 48 h, read-out: GI
[24] = Cytotoxicity against human NCI-ADR-RES cells assessed as growth inhibition at 10 uM after 48 hrs by SRB assay relative to control; conditions: read-out: GI
[25] = Cytotoxicity against human SKOV3 cells assessed as growth inhibition at 10 uM after 48 hrs by SRB assay relative to control; conditions: SK-OV-3, 48 h, read-out: GI
[26] = Cytotoxicity against human 786-0 cells assessed as growth inhibition at 10 uM after 48 hrs by SRB assay relative to control; conditions: 786-0, 48 h, read-out: GI
[27] = Cytotoxicity against human ACHN cells assessed as growth inhibition at 10 uM after 48 hrs by SRB assay relative to control; conditions: read-out: GI
[28] = Cytotoxicity against human Caki1 cells assessed as growth inhibition at 10 uM after 48 hrs by SRB assay relative to control; conditions: CAKI-1, 48 h, read-out: GI
[29] = Cytotoxicity against human TK10 cells assessed as growth inhibition at 10 uM after 48 hrs by SRB assay relative to control; conditions: TK-10, 48 h, read-out: GI
[30] = Cytotoxicity against human UO31 cells assessed as growth inhibition at 10 uM after 48 hrs by SRB assay relative to control; conditions: UO-31, 48 h, read-out: GI
[31] = Cytotoxicity against human PC3 cells assessed as growth inhibition at 10 uM after 48 hrs by SRB assay relative to control; conditions: PC-3, 48 h, read-out: GI
[32] = Cytotoxicity against human DU145 cells assessed as growth inhibition at 10 uM after 48 hrs by SRB assay relative to control; conditions: DU-145, 48 h, read-out: GI
[33] = Cytotoxicity against human MCF7 cells assessed as growth inhibition at 10 uM after 48 hrs by SRB assay relative to control; conditions: MCF7, 48 h, read-out: GI
[34] = Cytotoxicity against human MDA-MB-231 cells assessed as growth inhibition at 10 uM after 48 hrs by SRB assay relative to control; conditions: MDA-MB-231, 48 h, read-out: GI
[35] = Cytotoxicity against human BT549 cells assessed as growth inhibition at 10 uM after 48 hrs by SRB assay relative to control; conditions: BT-549, 48 h, read-out: GI
[36] = Cytotoxicity against human T47D cells assessed as growth inhibition at 10 uM after 48 hrs by SRB assay relative to control; conditions: read-out: GI
[37] = Cytotoxicity against human MDA-MB-468 cells assessed as growth inhibition at 10 uM after 48 hrs by SRB assay relative to control; conditions: MDA-MB-468, 48 h, read-out: GI

SMILES	inhibition of growth at 10 µM [1] [%]	inhibition of growth at 10 µM [2] [%]	inhibition of growth at 10 µM [3] [%]	inhibition of growth at 10 µM [4] [%]	inhibition of growth at 10 µM [5] [%]	inhibition of growth at 10 µM [7] [%]	inhibition of growth at 10 µM [8] [%]	inhibition of growth at 10 µM [9] [%]	inhibition of growth at 10 µM [10] [%]	inhibition of growth at 10 µM [11] [%]	inhibition of growth at 10 µM [12] [%]	inhibition of growth at 10 µM [13] [%]	inhibition of growth at 10 µM [14] [%]	inhibition of growth at 10 µM [15] [%]	inhibition of growth at 10 µM [16] [%]	inhibition of growth at 10 µM [17] [%]	inhibition of growth at 10 µM [18] [%]	inhibition of growth at 10 µM [19] [%]	inhibition of growth at 10 µM [20] [%]	inhibition of growth at 10 µM [21] [%]	other results
COc1ccc(CN2c3ccccc3Sc3ccccc32)c(F)c1	93	100	88	88	67	50	55	100	88	84	65	96	74	90	48	92	70	47	43	89	inhibition of growth at 10 µM [6]: 44%; inhibition of growth at 10 µM [22]: 50%; inhibition of growth at 10 µM [23]: 50%; inhibition of growth at 10 µM [24]: 78%; inhibition of growth at 10 µM [25]: 70%; inhibition of growth at 10 µM [26]: 58%; inhibition of growth at 10 µM [27]: 57%; inhibition of growth at 10 µM [28]: 78%; inhibition of growth at 10 µM [29]: 49%; inhibition of growth at 10 µM [30]: 57%; inhibition of growth at 10 µM [31]: 70%; inhibition of growth at 10 µM [32]: 79%; inhibition of growth at 10 µM [33]: 77%; inhibition of growth at 10 µM [34]: 40%; inhibition of growth at 10 µM [35]: 47%; inhibition of growth at 10 µM [36]: 88%; inhibition of growth at 10 µM [37]: 98%
COc1ccc(CN2c3ccccc3Oc3ccccc32)cc1F	33	46	39	73	33	28	8	100	58	69	53	89	59	66	15	67	60	41	41	66	inhibition of growth at 10 µM [22]: 48%; inhibition of growth at 10 µM [23]: 13%; inhibition of growth at 10 µM [24]: 59%; inhibition of growth at 10 µM [25]: 53%; inhibition of growth at 10 µM [26]: 21%; inhibition of growth at 10 µM [27]: 19%; inhibition of growth at 10 µM [28]: 41%; inhibition of growth at 10 µM [29]: 26%; inhibition of growth at 10 µM [30]: 47%; inhibition of growth at 10 µM [31]: 35%; inhibition of growth at 10 µM [32]: 4%; inhibition of growth at 10 µM [33]: 57%; inhibition of growth at 10 µM [34]: 47%; inhibition of growth at 10 µM [35]: 30%; inhibition of growth at 10 µM [36]: 42%; inhibition of growth at 10 µM [37]: 56%
